Literature values as cited in patent US4127524A, “Novel dodecapeptides, intermediates therefor, and compositions and methods employing said dodecapeptides” (priority 1977, dated 1978).

What was measured:
[1] = system: partially purified brain opiate receptor sites
rat = conditions: injected directly into the brain of the rat

Substance: H-Tyr-Gly-Gly-Phe-Met-OH [methionine enkephalin]
- binding to partially purified brain opiate receptor sites [1]: binds stereo-specifically
- analgesic activity (rat): only weak analgesic agent of short duration
